Measured values published in US20250115571A1, “OXOPIPERAZINE DERIVATIVES” (Inthera Bioscience AG, priority 2017, published 2025).

Columns and labels:
[1] = tested on: 22RV1; experiment: 5-day cell proliferation assay (CTG); type: cell-based; conditions: Homo sapiens, 120 h, 22RV1, Prostate
Procedure: (§1) For screening using a proliferation assay, the cells used were cultured at 37° C. with 5% CO2, except for those being cultured with L-15 medium (37° C. and 100% air, TABLE 7). Compound stock solutions (10 mM) were made in sterile water, aliquoted and stored at room temperature. Cisplatin was used as reference Control. Plastic consumables, culture media and supplements were purchased from well-known suppliers (TABLE 8).
(§2) Cell seeding (day −1). When necessary, cells were trypsinized using standard methods (see e.g. example 01). Cells were collected and resuspended in 5-6 mL of appropriate culture medium, counted and diluted to the needed density. Fifty-four μl (microliter) cells were seeded per well in a 384-well plate. Extra four wells per cell line were seeded on an additional plate for Day 0 reading (baseline cell density). Cells were incubated at 37° C. overnight.
(§3) Compound treatment and Day 0 reading (day 0). Tenfold final concentration of test compounds and Cisplatin were prepared in cell culture media (work dilutions). Six μl of work dilution solutions were dispensed into the corresponding wells in 384-well plates to bring the total volume up to 60 μl. Conditions were tested in triplicate. The plates were then incubated at 37° C. for five days. For the day 0 reading, 30 μl of CTG and 6 μl cell culture medium were added to the day 0 plates, contents mixed for 2 min on a plate shaker, and the plates incubated for 10 min at room temperature in the dark. Luminescence was recorded on an EnVision Multi Label Reader (2104-0010A, PerkinElmer, USA).
(§4) Endpoint CTG reading (day 5). The amounts of cells in the plates was determined by endpoint CTG-test. Thirty μl of CTG were added to the 60 μl of cell culture per well, contents mixed for 2 min on a plate shaker, and the plates incubated for 10 min at room temperature in the dark. Luminescence was recorded on an EnVision Multi Label Reader.
(§5) Data analysis. Fifty percent growth inhibition concentrations (GI50) were calculated based on percentage of control data (untreated cells) from each cell line (TABLE 5 (this example) and TABLE 6). Curves were fitted using a nonlinear regression model with a sigmoidal dose response. Examples of obtained curves are depicted in FIG. 2A-2F.

[2] = tested on: BT474; experiment: 5-day cell proliferation assay (CTG); type: cell-based; conditions: Homo sapiens, BT-474, 120 h, BT474, Breast
Procedure: as §1, §2, §3, §4, §5

[3] = tested on: CaSki; experiment: 5-day cell proliferation assay (CTG); type: cell-based; conditions: Homo sapiens, Ca-Ski, 120 h, Cervix
Procedure: as §1, §2, §3, §4, §5

[4] = tested on: DU145; experiment: 5-day cell proliferation assay (CTG); type: cell-based; conditions: Homo sapiens, DU-145, 120 h, DU145, Prostate
Procedure: as §1, §2, §3, §4, §5

[5] = tested on: H460; experiment: 5-day cell proliferation assay (CTG); type: cell-based; conditions: Homo sapiens, NCI-H460, 120 h, H460, Lung
Procedure: as §1, §2, §3, §4, §5

[6] = tested on: H4; experiment: 5-day cell proliferation assay (CTG); type: cell-based; conditions: Homo sapiens, 120 h, H4, Brain/Nerves
Procedure: as §1, §2, §3, §4, §5

[7] = tested on: HEP-3B; experiment: 5-day cell proliferation assay (CTG); type: cell-based; conditions: Homo sapiens, Hep3B, 120 h, Liver
Procedure: as §1, §2, §3, §4, §5

[8] = tested on: HT-3; experiment: 5-day cell proliferation assay (CTG); type: cell-based; conditions: Homo sapiens, 120 h, HT-3, Cervix
Procedure: as §1, §2, §3, §4, §5

[9] = tested on: IM95m; experiment: 5-day cell proliferation assay (CTG); type: cell-based; conditions: Homo sapiens, 120 h, Stomach/Gastric
Procedure: as §1, §2, §3, §4, §5

[10] = tested on: KYSE-150; experiment: 5-day cell proliferation assay (CTG); type: cell-based; conditions: Homo sapiens, 120 h, KYSE-150, Oesophagus
Procedure: as §1, §2, §3, §4, §5

[11] = tested on: KYSE-270; experiment: 5-day cell proliferation assay (CTG); type: cell-based; conditions: Homo sapiens, 120 h, KYSE-270, Oesophagus
Procedure: as §1, §2, §3, §4, §5

[12] = tested on: MKN-1; experiment: 5-day cell proliferation assay (CTG); type: cell-based; conditions: Homo sapiens, 120 h, MKN-1, Stomach/Gastric
Procedure: as §1, §2, §3, §4, §5

[13] = tested on: MS751; experiment: 5-day cell proliferation assay (CTG); type: cell-based; conditions: Homo sapiens, 120 h, MS751, Cervix
Procedure: as §1, §2, §3, §4, §5

[14] = tested on: Malme-3M; experiment: 5-day cell proliferation assay (CTG); type: cell-based; conditions: Homo sapiens, 120 h, Skin, highest tested concentration 10 μM
Procedure: as §1, §2, §3, §4, §5

[15] = tested on: OVCAR-3; experiment: 5-day cell proliferation assay (CTG); type: cell-based; conditions: Homo sapiens, 120 h, OVCAR-3, Ovary
Procedure: as §1, §2, §3, §4, §5

[16] = tested on: PANC-1; experiment: 5-day cell proliferation assay (CTG); type: cell-based; conditions: Homo sapiens, 120 h, PANC-1, Pancreas
Procedure: as §1, §2, §3, §4, §5

[17] = tested on: SK-MEL5; experiment: 5-day cell proliferation assay (CTG); type: cell-based; conditions: Homo sapiens, SK-MEL-5, 120 h, SK-MEL5, Skin
Procedure: as §1, §2, §3, §4, §5

[18] = tested on: SiHa; experiment: 5-day cell proliferation assay (CTG); type: cell-based; conditions: Homo sapiens, 120 h, Cervix
Procedure: as §1, §2, §3, §4, §5

[19] = tested on: p53 protein and p53 lysine 382 acetylation in CaSki cells; experiment: P53 protein reactivation in HPV16-positive cervical cancer cells (Western blot); type: cell-based, human; conditions: 72 h
Procedure: HPV16-positive cervical cancer cells CaSki were subcultured as described in EXAMPLE 1, seeded at a density of 20′000 cells/cm^2; and readily treated with Compound 258 for 72 hrs. For western blot analysis, cells were removed from the cell culture vessels by trypsinization, washed twice with PBS (Sigma-Aldrich), lysed with a RIPA-buffer/Protease inhibitor cocktail (Sigma-Aldrich) by shaking on ice for 30 minutes followed by sonication on ice, 20 minutes centrifugation at 16′000×g, 4° C. Lysates were mixed 1:1 with 4× Lammli Buffer (Bio-Rad) prior to loading onto a Mini-PROTEAN TGX precast 4-20% PAGE gel (Bio-Rad). Gels were run for 1 hour at 110V. Gel were transferred to a Trans-Blot Turbo Mini PVDF membrane (Bio-Rad) using a Bio-Rad Trans-Blot Turbo System according to manufacturer's instructions. Equal amounts of cells were used, and the total transferred protein visualized on a Bio-Rad ChemiDoc Touch Imager prior to incubation with the primary antibody. […] Specific antibody binding was detected with the SuperSignal West Femto Maximum Sensitivity Substrate (ThermoFisher) and visualized using a Bio-Rad ChemiDoc Touch Imager.

CC(C)C[C@@H]1NCCN([C@@H](CC(C)C)C(=O)N2CCC3(C[C@@H]2C)OCC(CN2CCCC2)CO3)C1=O (stereo partly drawn) [Compound 258, (3S)-1-[(2S)-4-methyl-1-oxo-1-[(3s,6s,8S)-8-methyl-3-(pyrrolidin-1-ylmethyl)-1,5-dioxa-9-azaspiro[5.5]undec-an-9-yl]pentan-2-yl]-3-(2-methylpropyl)piper-azin-2-one (^≠), isomer Z]
GI50 [1]: 9 nM | GI50 [2]: 72 nM | GI50 [3]: 35 nM | GI50 [4]: 7 nM | GI50 [5]: 11 nM | GI50 [6]: 11 nM | GI50 [7]: 23 nM | GI50 [8]: 330 nM | GI50 [9]: 4 nM | GI50 [10]: 11 nM | GI50 [11]: 44 nM | GI50 [12]: 2 nM | GI50 [13]: 51 nM | GI50 [14]: > 10000 nM | GI50 [15]: 44 nM | GI50 [16]: 22 nM | GI50 [17]: 51 nM | GI50 [18]: 52 nM | concentration at which acetylation of p53 lysine 382 is detectable [19]: 20 nM | concentration at which induction of p53 protein above baseline is evident [19]: 7 nM
